Results as given in patent publication US20230116114A1, “COMPOUNDS AND COMPOSITIONS FOR TREATING CNS DISORDERS” (Blue Oak Pharmaceuticals, Inc., priority 2020, published 2023).
Counter-ions that a name gives are not always drawn.

Tested on: mice
Assay: SmartCube in vivo neuropharmacological behavioral assay
Details: for minimal effective dose: Mus musculus, ip, 0.25 h, dose having 50% or more total activity in SmartCube, i.p., read-out: MED (minimal effective dose); for AD: antidepressant (percent probability) / AG: analgesic (percent probability) / AP: antipsychotic (percent probability) / AX: anxiolytic (percent probability) / CE: cognitive enhancer (percent probability) / HA: hallucinogenic (percent probability) / MS: mood stabilizer (percent probability) / PS (percent probability) / SD: sedative hypnotic (percent probability) / SE: side effects (percent probability) / UN: uncharacterized CNS activity (percent probability) / XG: anxiogenic (percent probability): SmartCube, i.p. 15 min before test, result at the MED
Outline: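 Mice dosed i.p. in NMP (Pharmasolve) 15 min before automated video behavioral testing at several doses (e.g., 0.3-30 mpk). Signatures compared to reference drug classes giving per-class probabilities (0-100); MED is the lowest dose with ≥50% total activity.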

Row | SMILES | minimal effective dose | AD: antidepressant (percent probability) | AG: analgesic (percent probability) | AP: antipsychotic (percent probability) | AX: anxiolytic (percent probability) | CE: cognitive enhancer (percent probability) | HA: hallucinogenic (percent probability) | MS: mood stabilizer (percent probability) | PS (percent probability) | SD: sedative hypnotic (percent probability) | SE: side effects (percent probability) | UN: uncharacterized CNS activity (percent probability) | XG: anxiogenic (percent probability)
1 | CO[C@@H]1CC[C@H]2c3ccccc3[C@@H]1N2C(C)C (stereo in doubt) [Compound 34, 9-Methoxy-12-(propan-2-yl)-12-azatricyclo[6.3.1.0^2,7]dodeca-2,4,6-triene hydrochloride] | 10 to 30 mg/kg | ++ (5% ≤ X < 25%) | + (LOQ ≤ X < 5%) | + (LOQ ≤ X < 5%) | ++ (5% ≤ X < 25%) | + (LOQ ≤ X < 5%) | + (LOQ ≤ X < 5%) | + (LOQ ≤ X < 5%) | + (LOQ ≤ X < 5%) | + (LOQ ≤ X < 5%) | + (LOQ ≤ X < 5%) | ++ (5% ≤ X < 25%) | + (LOQ ≤ X < 5%)
2 | FCC(CF)N1C2CCCC1c1ccccc12 [Compound 14, 12-(1,3-Difluoropropan-2-yl)-12-azatricyclo[6.3.1.0^20.7]dodeca-2,4,6-triene hydrochloride] | 10 to 30 mg/kg | ++ (5% ≤ X < 25%) | +++ (25% ≤ X < 50%) | + (LOQ ≤ X < 5%) | ++ (5% ≤ X < 25%) | + (LOQ ≤ X < 5%) | + (LOQ ≤ X < 5%) | + (LOQ ≤ X < 5%) | + (LOQ ≤ X < 5%) | + (LOQ ≤ X < 5%) | + (LOQ ≤ X < 5%) | + (LOQ ≤ X < 5%) | + (LOQ ≤ X < 5%)
3 | CC1CC2c3ccccc3C(C1)N2C1CC1 (stereo not drawn) [Compound 38, 12-azatricyclo[6.3.1.0^2,7]dodeca-2,4,6-trien-10-yl}methylium hydrochloride] | 10 to 30 mg/kg | ++++ (50% ≤ X < 100%) | + (LOQ ≤ X < 5%) | + (LOQ ≤ X < 5%) | + (LOQ ≤ X < 5%) | ++ (5% ≤ X < 25%) | ++ (5% ≤ X < 25%) | + (LOQ ≤ X < 5%) | + (LOQ ≤ X < 5%) | + (LOQ ≤ X < 5%) | + (LOQ ≤ X < 5%) | + (LOQ ≤ X < 5%) | + (LOQ ≤ X < 5%)
